The results in this text go back to a melting point compilation (Tetko et al.; mined from patent text by program, amines drawn as free bases though some values may be those of a salt).

The term melting point denotes the temperature of the solid-liquid transition.

SMILES strings stand for the structures. Bounds are passed on as bounds.

`CSc1nc(C)c(CCN2CC=C(c3c[nH]c4ccccc34)CC2)c(=O)n1C` showed a melting point of 245 to 246 °C.
Under `COc1ccc(-c2cc(C#N)c3cc(O)ccc3c2)cc1F` stands 214 to 216 °C; under `CC(C)(C)NC(=O)[C@@H]1C[C@H](Cl)CN1C(=O)[C@@H](O)[C@H](Cc1ccccc1)N(Cc1ccccc1)Cc1ccccc1`, 64 to 67 °C; under `NS(=O)(=O)c1ccc(NS(=O)(=O)/C=C/c2ccccc2)cc1`, 171 to 173 °C.
For `N=C(Nc1ccc(CCNCc2ccccc2)cc1)c1cccs1`, the melting point is 116 to 118 °C.
For `CCCCCC(=O)c1c(Cn2cncn2)nc2cc(OC)c(OC)cc2c1-c1ccc(OC)c(OC)c1`, the melting point fell in the range of 151 to 152 °C.
For `O=C(O)c1cn(Cc2cnsn2)c2cc(F)c(F)cc2c1=O`, the melting point is 278 to 282 °C.
The result for `CCc1ccc(CC(C)(C)NCC(O)c2cc(OCc3ccccc3)cc3c2OCC(=O)N3)cc1` (stereo not drawn) reads 210 to 214 °C; that for `COc1ccc(-c2c(Cl)c(CN3C(=O)CCC3=O)nc3sc4c(c23)CCS(=O)(=O)C4)cc1`, 300 °C.
As to `COc1cccc(Nc2ccnc(Nc3ccc(OC)c(OC)c3)n2)c1`, the melting point was 135 to 138 °C.
`Cc1nnc(N2CCN(C=O)CC2)c2cc3ccccn3c12`: the melting point worked out at 325 °C.
In turn, `Fc1ccc(C(C(Br)c2ccccc2)C(F)(F)F)cc1` (stereo not drawn) registered a melting point of 144 to 146 °C.
The result for `CC(=O)Nc1ccc(C(=O)Oc2ccccc2)c(Cl)c1` reads 84 to 86 °C; that for `Cc1cc2cc(C#N)c(Cl)nc2cc1C`, 189 to 190 °C.
For `Fc1ccc(-n2ccc3cc(OCCCCCCCBr)ccc32)cc1`, the melting point lay within 63 to 65 °C.
`CS(=O)(=O)c1ccc(-n2cc(CO)nc2-c2ccc(Cl)cc2)cc1` yielded a melting point of 205 to 208 °C.
The compound `Cn1cc(C(=O)F)c(C(F)F)c1` had a melting point of 53 to 54 °C.
Under `Cc1cc(Cl)cc(C(=O)NC(C)C)c1NC(=O)c1cc(Br)nn1N1C=CC=C(Cl)C1` stands 159 to 161 °C; under `Cc1ccc(-n2nc(C(C)(C)C)cc2NC(=O)Nc2ccc(OCC(=O)N3CCOCC3)c3ccccc23)cc1`, 240 to 241 °C; under `O=C(NCCCn1cncn1)c1ccc(Cl)nc1`, 87 to 89 °C.
In turn, `NS(=O)(=O)c1cc(C(=O)O)cc(NCc2ccccc2)c1S(=O)c1ccccc1` (stereo not drawn) showed a melting point of 234 °C.
On to `C1CNC2CNCC2C1` (stereo not drawn), for which the melting point was in the range of 65 to 67 °C.
`COc1cc2c3c(n(CCCNS(=O)(=O)c4ccccc4)c(=O)c2cc1OC)-c1ccccc1C3=O` came in with a melting point of 249 to 250 °C.
In turn, `CCC(=O)CNC(=O)CSc1cnc(NC(C)=O)s1` registered a melting point of 195 to 196 °C.
Regarding `Cc1ccc(-n2nc(C)cc2-c2ccnc(Cl)c2)cc1`, the melting point was 100 °C.
For `CN(C)c1ccc(NC(=O)N(Cc2ccco2)C[C@H]2CCCC[C@H]2CN(Cc2ccco2)C(=O)Nc2ccc(N(C)C)cc2)cc1`, the melting point was in the range of 106 to 110 °C.
Compound `O=C(O)C(Cc1ccccc1)C(=O)N[C@H](CO)Cc1c[nH]c2ccccc12` (stereo partly drawn) registered a melting point of 130 to 131 °C.
Under `Oc1ccccc1-c1cc(Oc2ccc3cccnc3c2)ncn1` stands 188 to 191 °C.
`CC(C)Sc1c(C(=O)O)sc2cccc(Cl)c12` returned a melting point of 107 to 109 °C.
With `CCn1cc(C(=O)O)c(=O)c2cc(F)c(N3CCN(C)C(COC)C3)cc21` (stereo not drawn), the melting point lay within 228 to 230 °C.
`CCn1nnc(C(C=O)=C(c2ccc(F)cc2)c2ccc(F)cc2)n1` gave a melting point of 138 to 139 °C.
`COC(=O)Cc1cc(C(=O)c2ccc(F)cc2)ccc1O` yielded a melting point of 173 °C.
The result for `COC(=O)c1cnc(N2CCNC2=O)s1` reads 205 to 208 °C; that for `O=C(NNC(=O)c1ccccc1Cl)c1ccccc1Cl`, 217 to 219 °C; that for `Cc1cc(C)c2c(c1O)C(N)C(C1CCCCC1)C2` (stereo not drawn), 125 to 126 °C.
Take `Cc1ccc(-c2cc(-c3ccc(Cl)cc3)n[nH]2)cc1`: the melting point was 228 °C.
On to `CCOc1cc(C)ccc1C1CCN(CCCCNC(=O)c2ccc3c(c2)cc(-c2ccc(Cl)cc2)n3C)CC1`, for which the melting point was in the range of 174 to 175 °C.
`O=C(CCNC(=O)[C@H](Cc1ccc(-c2ccccc2)cc1)NCP(=O)(O)Oc1ccccc1)OCc1ccccc1` returned a melting point of 243 to 244 °C.
`COC(=O)NC(=N)C(C)C` registered a melting point of 127 to 130 °C.
In turn, `Cc1cccc(NC(=O)CN2CCN(c3ccccc3C#N)CC2)c1` returned a melting point of 168 to 170 °C.
The compound `O=C(Oc1ccccc1)N1CCC(c2noc3cccc(F)c23)CC1` yielded a melting point of 108 to 110 °C.
Consider `CCOC(=O)CCNC(=O)c1[nH]c(C)c(-c2nc3ccc(C(=O)c4ccccc4)cc3[nH]2)c1C`, for which the melting point was in the range of 135 to 137 °C.
Under `CN(CCOc1ccc(C=C2SC(=O)NC2=O)cc1)c1nccs1` stands 212 °C; under `Cc1noc(C)c1-c1cn(Cc2ccccc2)c(=O)c2cccnc12`, 192 to 195 °C.
`S=c1[nH]ccn1OCc1cccnc1` yielded a melting point of 128 to 129 °C.
For the compound `N[C@@H](Cc1cccc(OC(F)(F)C(F)F)c1)[C@H](O)c1ccnc(F)c1` (racemic), the melting point lay in the range of 119 to 120 °C.
For the compound `CC(C)NCC(O)COc1ccc(-c2nc(C(F)(F)F)c[nH]2)cc1` (stereo not drawn), the melting point fell in the range of 173 to 174 °C.
Under `S=C(NN=Cc1cccc(-c2ccccc2Cl)n1)NN1CCCC1` stands 187 to 188 °C; under `CCn1cncc1/C=C/c1cn(-c2ccccc2)nc1OCc1ccc(OCc2nc(-c3ccc(CC(=O)O)cc3)oc2C)c(OC)c1`, 149 to 150 °C; under `CCNC(=S)NS(=O)(=O)c1cc2c(cc1OC)OCCC2CNC(=O)N1CC(C)=C(CC)C1=O` (stereo not drawn), 147 °C.
`CCOC(CNC(=S)Nc1c(F)ccc2nc(C)ccc12)OCC`: the melting point fell in the range of 189 to 191 °C.
Compound `CN(Cc1cccc(-c2ccc(CC3SC(=O)NC3=O)cc2)c1)C(=O)c1cccs1` (stereo not drawn) showed a melting point of 160 °C.
Under `O=C(NCc1ncco1)c1ccnc(N2CCN(Cc3ccc(F)cc3)C2=O)c1` stands 148 to 150 °C; under `COc1cc(N)c(Cl)cc1C(C)=O`, 114 to 116 °C; under `Cc1c(N(C)C)cc(C(=O)CS(C)(=O)=O)cc1N(C)C`, 161 to 163 °C.
Compound `CCC(=O)Nc1c(C(=O)c2cccc(Cl)c2)[nH]c2cc(Cl)ccc12` had a melting point of 129 to 130 °C.
`Cc1cccc(-c2[nH]c(C(C)C)nc2-c2cccc(-c3ccc(F)cc3F)c2)n1` registered a melting point of 70 to 72 °C.
Consider `O=[N+]([O-])c1cc(-c2ccncc2)ccc1O`, for which the melting point is 210 to 212 °C.
`CN1CCN(c2cc3ncc(C#N)c(Nc4ccc(F)c(Cl)c4)c3cc2[N+](=O)[O-])CC1` registered a melting point of 240 to 246 °C.
`CCNC(=O)Nc1cnc2ccc(-c3ccc(N)c(OC)c3)nc2n1` displayed a melting point of over 310 °C.
Compound `COC(=O)C(C)(C)c1ccc2c(c1)c(=O)[nH]c(=O)n2CCCCBr` had a melting point of 164 to 165 °C.
The compound `COc1ccc2c(c1)c(C1=C(c3cn(C)c4ccc(OC)cc34)C(=O)N(C)C1=O)cn2C` registered a melting point of 114 to 117 °C.
In turn, `CCCCCCCCc1cc2c(cc1/C(C)=C/c1ccc(C(=O)OC)cc1)C(C)(C)CCCS2(=O)=O` gave a melting point of 85 to 86 °C.
